PubChem BioAssay (NCI)
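Interpolation was linear, between the two tested concentrations surrounding the appropriate level; five concentrations were tested over 48 hours in 96-well plates. At the TGI there is no net growth.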

How the values were obtained:
Test in all cases: NCI anticancer screen, dose series, 48 h
[1] = system: SNB-19 CNS
[2] = system: SK-MEL-5 melanoma
[3] = system: HOP-92 NSCLC
[4] = system: M14 melanoma
[5] = system: HCT-116 colon
[6] = system: KM12 colon
[7] = system: DU-145 prostate
[8] = system: UACC-62 melanoma
[9] = system: NCI-H460 lung
[10] = system: NCI-H23 lung
[11] = system: MOLT-4 leukemia
[12] = system: SN12C renal
[13] = system: NCI-H522 lung
[14] = system: 786-0 renal
[15] = system: MDA-MB-435
[16] = system: NCI/ADR-RES ovarian
[17] = system: EKVX NSCLC
[18] = system: LOX IMVI melanoma
[19] = system: SK-MEL-28 melanoma
[20] = system: MALME-3M melanoma
[21] = system: COLO 205 colon
[22] = system: SF-295 CNS
[23] = system: UO-31 renal
[24] = system: CCRF-CEM leukemia
[25] = system: RXF 393 renal
[26] = system: K-562 leukemia
[27] = system: SNB-75 CNS
[28] = system: ACHN renal
[29] = system: SK-MEL-2 melanoma
[30] = system: SK-OV-3 ovarian
[31] = system: OVCAR-8 ovarian
[32] = system: SF-268 CNS
[33] = system: HL-60(TB) leukemia
[34] = system: A549 NSCLC
[35] = system: HOP-62 NSCLC
[36] = system: SW-620 colon
[37] = system: UACC-257 melanoma
[38] = system: OVCAR-3 ovarian
[39] = system: T-47D breast
[40] = system: MCF7 breast
[41] = system: HS 578T breast
[42] = system: OVCAR-4 ovarian
[43] = system: HT29 colon
[44] = system: MDA-N
[45] = system: PC-3 prostate
[46] = system: SF-539 CNS
[47] = system: IGROV1 ovarian
[48] = system: HCC-2998 colon
[49] = system: OVCAR-5 ovarian
[50] = system: CAKI-1 renal
[51] = system: MDA-MB-231 breast
[52] = system: A498 renal
[53] = system: HCT-15 colon
[54] = system: NCI-H226 lung
[55] = system: TK-10 renal
[56] = system: RPMI-8226 leukemia
[57] = system: BT-549 breast
[58] = system: U251 CNS
[59] = system: SR leukemia

[N-]=[N+]=Nc1c(Cc2ccccc2)c(Cl)nc2ccccc12
TGI [1]: 83.1 µM
TGI [2]: 30 µM
TGI [3]: 64.4 µM
TGI [4]: 49.4 µM
TGI [5]: 53 µM
TGI [6]: 61.2 µM
TGI [7]: > 100 µM
TGI [8]: 68.8 µM
TGI [9]: > 100 µM
TGI [10]: > 100 µM
TGI [11]: > 100 µM
TGI [12]: 73.8 µM
TGI [13]: > 100 µM
TGI [14]: > 100 µM
TGI [15]: 37.2 µM
TGI [16]: > 100 µM
TGI [17]: > 100 µM
TGI [18]: 38.5 µM
TGI [19]: > 100 µM
TGI [20]: 41.8 µM
TGI [21]: 35.2 µM
TGI [22]: 62.1 µM
TGI [23]: > 100 µM
TGI [24]: > 100 µM
TGI [25]: 39.6 µM
TGI [26]: 83.7 µM
TGI [27]: 93.3 µM
TGI [28]: > 100 µM
TGI [29]: 33.4 µM
TGI [30]: > 100 µM
TGI [31]: 46.5 µM
TGI [32]: > 100 µM
TGI [33]: 56.6 µM
TGI [34]: > 100 µM
TGI [35]: 51 µM
TGI [36]: > 100 µM
TGI [37]: > 100 µM
TGI [38]: 38.4 µM
TGI [39]: > 100 µM
TGI [40]: 58.8 µM
TGI [41]: 54.4 µM
TGI [42]: > 100 µM
TGI [43]: > 100 µM
TGI [44]: > 100 µM
TGI [45]: > 100 µM
TGI [46]: 41.3 µM
TGI [47]: > 100 µM
TGI [48]: > 100 µM
TGI [49]: > 100 µM
TGI [50]: 92.3 µM
TGI [51]: 56.7 µM
TGI [52]: 65.3 µM
TGI [53]: > 100 µM
TGI [54]: 59.7 µM
TGI [55]: 53 µM
TGI [56]: 87.3 µM

CSc1ncc2c(n1)C(C#N)C1Sc3ccccc3N1C2=O (centres undefined)
TGI [1]: > 100 µM
TGI [2]: > 100 µM
TGI [3]: > 100 µM
TGI [4]: > 100 µM
TGI [5]: > 100 µM
TGI [6]: > 100 µM
TGI [7]: > 100 µM
TGI [9]: > 100 µM
TGI [57]: > 100 µM
TGI [10]: > 100 µM
TGI [11]: > 100 µM
TGI [12]: > 100 µM
TGI [13]: > 100 µM
TGI [14]: > 100 µM
TGI [15]: > 100 µM
TGI [16]: > 100 µM
TGI [17]: > 100 µM
TGI [18]: > 100 µM
TGI [19]: > 100 µM
TGI [20]: > 100 µM
TGI [21]: > 100 µM
TGI [22]: > 100 µM
TGI [23]: > 100 µM
TGI [25]: > 100 µM
TGI [27]: 66.3 µM
TGI [28]: > 100 µM
TGI [30]: > 100 µM
TGI [31]: > 100 µM
TGI [32]: > 100 µM
TGI [34]: > 100 µM
TGI [35]: > 100 µM
TGI [36]: > 100 µM
TGI [37]: > 100 µM
TGI [38]: > 100 µM
TGI [39]: > 100 µM
TGI [58]: > 100 µM
TGI [42]: > 100 µM
TGI [43]: > 100 µM
TGI [44]: > 100 µM
TGI [46]: > 100 µM
TGI [47]: > 100 µM
TGI [49]: > 100 µM
TGI [50]: > 100 µM
TGI [51]: > 100 µM
TGI [52]: > 100 µM
TGI [53]: > 100 µM
TGI [54]: > 100 µM
TGI [55]: > 100 µM
TGI [56]: > 100 µM

NC(=O)Nc1c(Cl)cc(S(N)(=O)=O)cc1Cl
TGI [1]: > 100 µM
TGI [2]: > 100 µM
TGI [3]: > 100 µM
TGI [4]: > 100 µM
TGI [5]: > 100 µM
TGI [6]: > 100 µM
TGI [7]: > 100 µM
TGI [8]: > 100 µM
TGI [57]: > 100 µM
TGI [10]: > 100 µM
TGI [11]: > 100 µM
TGI [12]: > 100 µM
TGI [13]: > 100 µM
TGI [14]: > 100 µM
TGI [15]: > 100 µM
TGI [16]: > 100 µM
TGI [17]: > 100 µM
TGI [18]: > 100 µM
TGI [19]: > 100 µM
TGI [20]: > 100 µM
TGI [21]: > 100 µM
TGI [22]: > 100 µM
TGI [23]: > 100 µM
TGI [24]: > 100 µM
TGI [25]: > 100 µM
TGI [26]: > 100 µM
TGI [27]: > 100 µM
TGI [29]: > 100 µM
TGI [30]: > 100 µM
TGI [31]: > 100 µM
TGI [32]: > 100 µM
TGI [33]: > 100 µM
TGI [34]: > 100 µM
TGI [35]: > 100 µM
TGI [36]: > 100 µM
TGI [37]: > 100 µM
TGI [38]: > 100 µM
TGI [40]: > 100 µM
TGI [41]: > 100 µM
TGI [58]: > 100 µM
TGI [42]: > 100 µM
TGI [43]: > 100 µM
TGI [44]: > 100 µM
TGI [46]: > 100 µM
TGI [47]: > 100 µM
TGI [49]: > 100 µM
TGI [50]: > 100 µM
TGI [51]: > 100 µM
TGI [53]: > 100 µM
TGI [54]: > 100 µM
TGI [55]: > 100 µM
TGI [56]: > 100 µM

O=C(Nc1ccccc1)N(C1=NCC(CI)S1)c1ccc(F)c(F)c1 (centres undefined)
TGI [1]: > 100 µM
TGI [2]: 37.2 µM
TGI [3]: 26.3 µM
TGI [5]: > 100 µM
TGI [6]: > 100 µM
TGI [7]: > 100 µM
TGI [9]: > 100 µM
TGI [10]: > 100 µM
TGI [11]: 61.4 µM
TGI [12]: > 100 µM
TGI [14]: > 100 µM
TGI [16]: > 100 µM
TGI [17]: > 100 µM
TGI [18]: 34 µM
TGI [19]: 38.4 µM
TGI [20]: > 100 µM
TGI [21]: > 100 µM
TGI [22]: > 100 µM
TGI [23]: > 100 µM
TGI [24]: 75.9 µM
TGI [26]: > 100 µM
TGI [27]: 55.6 µM
TGI [28]: > 100 µM
TGI [29]: 60.5 µM
TGI [30]: > 100 µM
TGI [31]: > 100 µM
TGI [32]: > 100 µM
TGI [33]: 79.4 µM
TGI [34]: > 100 µM
TGI [35]: > 100 µM
TGI [36]: > 100 µM
TGI [37]: > 100 µM
TGI [38]: > 100 µM
TGI [39]: > 100 µM
TGI [40]: > 100 µM
TGI [41]: > 100 µM
TGI [58]: > 100 µM
TGI [42]: > 100 µM
TGI [43]: > 100 µM
TGI [44]: 96.3 µM
TGI [45]: > 100 µM
TGI [46]: > 100 µM
TGI [47]: > 100 µM
TGI [48]: > 100 µM
TGI [49]: > 100 µM
TGI [50]: > 100 µM
TGI [51]: 83.5 µM
TGI [52]: > 100 µM
TGI [53]: > 100 µM
TGI [59]: > 100 µM
TGI [55]: > 100 µM
TGI [56]: > 100 µM
